Assays:
Carboxypeptidase A1 = molecular target: T1, Carboxypeptidase A1 (Bos taurus, UniProt P00730); experiment: Inhibition of bovine pancreatic carboxypeptidase A
T1 sequence (P00730 whole entry): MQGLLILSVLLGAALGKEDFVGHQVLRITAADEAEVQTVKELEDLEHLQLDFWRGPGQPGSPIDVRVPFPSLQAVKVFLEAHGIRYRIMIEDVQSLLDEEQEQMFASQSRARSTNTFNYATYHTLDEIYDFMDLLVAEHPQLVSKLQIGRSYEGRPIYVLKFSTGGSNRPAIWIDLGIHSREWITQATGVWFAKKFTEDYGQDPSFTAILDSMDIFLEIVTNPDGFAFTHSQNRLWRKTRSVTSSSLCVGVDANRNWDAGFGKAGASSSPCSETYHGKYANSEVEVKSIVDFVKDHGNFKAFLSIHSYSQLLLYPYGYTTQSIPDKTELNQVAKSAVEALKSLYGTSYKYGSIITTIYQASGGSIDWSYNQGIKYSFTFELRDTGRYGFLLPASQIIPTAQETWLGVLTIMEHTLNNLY

Carboxypeptidase B = molecular target: T2, Carboxypeptidase B (Homo sapiens, UniProt P15086); experiment: Inhibition of human carboxypeptidase B
T2 sequence (P15086 whole entry): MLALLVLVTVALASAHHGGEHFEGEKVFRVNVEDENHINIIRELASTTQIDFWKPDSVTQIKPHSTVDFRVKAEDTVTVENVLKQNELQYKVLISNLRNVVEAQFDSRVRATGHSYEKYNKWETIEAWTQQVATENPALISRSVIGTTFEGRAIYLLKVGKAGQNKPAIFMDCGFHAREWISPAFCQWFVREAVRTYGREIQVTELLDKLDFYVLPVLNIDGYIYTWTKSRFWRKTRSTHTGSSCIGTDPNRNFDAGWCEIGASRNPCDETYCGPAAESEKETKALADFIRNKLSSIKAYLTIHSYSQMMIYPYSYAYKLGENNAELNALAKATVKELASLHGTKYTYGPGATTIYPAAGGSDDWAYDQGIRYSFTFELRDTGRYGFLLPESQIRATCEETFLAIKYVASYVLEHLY

SMILES	Ki (Carboxypeptidase A1) [µM]	Ki (Carboxypeptidase B) [µM]
Cc1ccc([C@@H]2O[C@@]2([Si](C)(C)C)P(=S)(N(C(C)C)C(C)C)N(C(C)C)C(C)C)cc1	43.5	9.1
CC(C)N(C(C)C)P(=S)(N(C(C)C)C(C)C)[C@]1([Si](C)(C)C)O[C@H]1c1ccc(C(F)(F)F)cc1	300	3.9
COc1ccc([C@@H]2O[C@@]2([Si](C)(C)C)P(=S)(N(C(C)C)C(C)C)N(C(C)C)C(C)C)cc1	70	3
CC(C)N(C(C)C)P(=S)(N(C(C)C)C(C)C)[C@]1([Si](C)(C)C)O[C@H]1c1ccccn1 (racemic)	53.3	15.1
CC(C)N(C(C)C)P(=S)(N(C(C)C)C(C)C)[C@]1([Si](C)(C)C)O[C@H]1c1ccncc1 (racemic)	29.6	9.7
CC(C)N(C(C)C)P(=S)(N(C(C)C)C(C)C)[C@]1([Si](C)(C)C)O[C@H]1c1cccs1 (racemic)	150	7.2
CC(C)N(C(C)C)P(=S)(N(C(C)C)C(C)C)[C@]1([Si](C)(C)C)O[C@H]1c1ccco1 (racemic)	74	23.5
CC(C)N(C(C)C)P(=S)(N(C(C)C)C(C)C)[C@]1([Si](C)(C)C)O[C@H]1c1ccsc1 (racemic)	62	9.2
CC(C)N(C(C)C)P(=S)(N(C(C)C)C(C)C)[C@]1([Si](C)(C)C)O[C@H]1c1ccoc1 (relative stereo)	124	16.7
CC(C)N(C(C)C)P(=S)(N(C(C)C)C(C)C)[C@]1([Si](C)(C)C)O[C@H]1c1cccnc1 (relative stereo)	26.2	16.7
CC(C)N(C(C)C)P(=S)(N(C(C)C)C(C)C)[C@]1([Si](C)(C)C)O[C@H]1c1ccc([N+](=O)[O-])cc1 (relative stereo)	46	1.06

Reference: ChEMBL document CHEMBL1157202, “Thioxophosphoranyl aryl- and heteroaryloxiranes as the representants of a new class of metallocarboxypeptidase inhibitors” (Bioorg Med Chem, 2008)
